{
  "source": "patent US20230243822A1",
  "about": "“MOLECULAR DISEASE PROFILE AND USE THEREOF FOR MONITORING AND TREATING RHEUMATAOID ARTHRITIS” (JANSSEN BIOTECH, INC., priority 2020, published 2023)",
  "key": {"[1]": {"system": "4-analyte M-DP panel (CRP, SAA, CXCL10, CXCL13)", "assay": "Pharmacodynamic 4-analyte M-DP score by MSD U-PLEX, CORRONA CERTAIN biorepository serum", "assay_type": "in vivo, human", "settings": "U-PLEX 4-analyte; for M-DP score GMean decrease: all treated", "method": "PD M-DP scores for the 4-analyte panel were calculated based on these concentrations of CRP, SAA, CXCL10, and CXCL13.\nThese samples were not previously evaluated for the M-DP panel development or reduction."}, "RA patients": {"system": "RA patients", "settings": "cited from earlier work"}, "14-analyte M-DP panel": {"system": "14-analyte M-DP panel", "assay": "Pharmacodynamic M-DP score, 14-analyte panel (SomaLogic SOMAscan), clinical studies in RA", "assay_type": "in vivo, human", "source_text": "(§1) Serum samples and data from eight interventional clinical studies with seven different active treatments for RA or placebo treatment were obtained and analyzed: sirukumab (anti-IL-6) and placebo treatments in SIRROUND-M (NCT01689532; Takeuchi T, et al. Arthritis Res Ther. 2018 Mar. 7; 20(1): 42), SIRROUND-D (NCT01604343; Takeuchi T, et al. Ann Rheum Dis. 2017 Dec.; 76(12): 2001-2008), and SIRROUND-T (NCT01606761; Aletaha D, et al. Lancet. 2017 Mar. 25; 389(10075): 1206-1217); sirukumab and adalimumab (anti-TNF-alpha) treatments in SIRROUND-H (NCT02019472; Taylor PC, et al. Ann Rheum Dis. 2018 May; 77(5): 658-666); golimumab (anti-TNF-alpha) treatment in GO-FURTHER (NCT00973479; Weinblatt ME, et al. Ann Rheum Dis. 2013 March; 72(3): 381-9); guselkumab (anti-IL-23p19), ustekinumab (anti-IL-12/IL-23p40), and placebo treatments in CNTO1275ARA2001 (NCT01645280; Cox JD, et al. […]); JNJ-40346527 (colony-stimulating factor-1 inhibitor) and placebo treatments in 40346527ARA2001 (NCT01597739; Genovese MC, et al. J Rheumatol. 2015 October; 42(10): 1752-60). Plasma samples were obtained from the RA-MAP TACERA study (Cope AP, et al. Nat Rev Rheumatol. 2018 January; 14(1): 53-60) before (baseline) and 6-months after initiation of conventional synthetic disease-modifying anti-rheumatic drugs (csDMARDs). Details of treatment dose groups, concomitant methotrexate use, and previous experience with csDMARDs and biologics are reported in Table 1. The studies were conducted in accordance with the Declaration of Helsinki. The study protocols were reviewed and approved by an independent ethics committee or institutional review board for each study center. Written informed consent was obtained from all patients before study entry. Additional study details and patient characteristics are available in the referenced publications for each study. For SIRROUND-D and SIRROUND-T studies, sets of serum samples from demographically-matched healthy controls were obtained from commercial sources (BioIVT, Westbury, N.Y.).\n(§2) Serum samples from baseline (week 0) and the time points indicated in Table 1 were provided for quantification of 1189 serum analytes using the SomaScan v3.1 platform (SomaLogic, Boulder, Colo.; www.somalogic.com), with the exception of RA-MAP TACERA, for which plasma samples were analyzed for 1301 analytes using the SomaScan v3.2 platform. For some studies, a redacted dataset reporting data for a subset of the analytes was obtained. Relative fluorescence unit (RFU) data were sequentially normalized for hybridization controls (internal standards per samples), median signal across all samples (assumes same total protein concentration across sample set), and calibration controls (common sample standards across analysis plates). Samples failed quality control standards defined by Somalogic were excluded from analyses. The normalized RFU values were log2-transformed for subsequent analyses.\n(§3) Changes in analyte expression levels were calculated for individual samples as the log2 transform of the ratio of the analyte level at the indicated time point (visit level) over the analyte level at baseline (baseline level) for a given subject, i.e., log 2(visit level/baseline level). Changes in RA disease-associated analytes per sample were summarized using a pharmacodynamic (PD) molecular disease profile (M-DP) score, defined as the median value of the log 2(visit level/baseline level) values for analytes in the defined M-DP analyte set. […] PD M-DP scores in the log 2(visit level/baseline level) scale can be transformed to percent change from baseline, using the transformation: (2^M-DP score−1)×100%.\nStatistical analyses were performed on log2-transformed data, for either normalized Relative fluorescence unit (RFU) datasets or within-subject fold/baseline datasets. Significance of differences between groups was evaluated using General Linear Models, with t-tests when comparing two groups. […]"}, "[2]": {"system": "4-analyte M-DP panel (CRP, CXCL10, CXCL13, SAA)", "assay": "Pharmacodynamic M-DP score, 4-analyte panel CRP, CXCL10, CXCL13, SAA (SOMAscan), clinical studies in RA", "assay_type": "in vivo, human", "settings": "4-analyte, 40346527ARA2001, oral 100 mg BID; for M-DP score mean difference ± SD, Good vs. No / M-DP score mean ± SD, DAS28-CRP response group Good / M-DP score mean ± SD, DAS28-CRP response group Moderate / M-DP score mean ± SD, DAS28-CRP response group No: response at week 12", "source_text": "as §1, §2, §3\nIn selecting the best minimal set of analytes that performs similarly to the full 14-analyte set, analyte sets that results in significant associations between DAS28-CRP EULAR good vs. no response with p<0.05 for each study were prioritized (Table 4). […]"}, "[3]": {"settings": "CERTAIN Biorepository RA patients"}, "[4]": {"settings": "40346527ARA2001, score at week 4, oral 100 mg BID, response at week 12"}, "[5]": {"settings": "40346527ARA2001, score at week 12, oral 100 mg BID, response at week 12"}},
  "data": [
    {"molecule": "rituximab", "values": [
      {"measurement": "M-DP score GMean decrease", "setting": "[1]; 3-months", "result": 30, "unit": "%"},
      {"measurement": "M-DP score GMean decrease", "setting": "[1]; 6-months", "result": 36, "unit": "%"},
      {"measurement": "M-DP score mean ± SD, 6-month DAS28-CRP response group Good", "setting": "[1]; score at month 3M", "result": "−0.44 ± 1.13 [7] log2 (fold/baseline)"},
      {"measurement": "M-DP score mean ± SD, 6-month DAS28-CRP response group Moderate", "setting": "[1]; score at month 3M", "result": "−0.71 ± 1.62 [4] log2 (fold/baseline)"},
      {"measurement": "M-DP score mean ± SD, 6-month DAS28-CRP response group No", "setting": "[1]; score at month 3M", "result": "−0.23 n.a. [1] log2 (fold/baseline)"},
      {"measurement": "M-DP score mean ± SD, All treated", "setting": "[1]; score at month 3M", "result": "−0.51 ± 1.20 [12] log2 (fold/baseline)"},
      {"measurement": "M-DP score mean ± SD, 6-month DAS28-CRP response group Good", "setting": "[1]; score at month 6M", "result": "−0.96 ± 0.79 [7]* log2 (fold/baseline)"},
      {"measurement": "M-DP score mean ± SD, 6-month DAS28-CRP response group Moderate", "setting": "[1]; score at month 6M", "result": "−0.24 ± 1.23 [4] log2 (fold/baseline)"},
      {"measurement": "M-DP score mean ± SD, 6-month DAS28-CRP response group No", "setting": "[1]; score at month 6M", "result": "−0.01 n.a. [1] log2 (fold/baseline)"},
      {"measurement": "M-DP score mean ± SD, All treated", "setting": "[1]; score at month 6M", "result": "−0.64 ± 0.95 [12] * log2 (fold/baseline)"},
      {"measurement": "EULAR DAS28-CRP clinical response rate, good response", "setting": "RA patients; [3]", "result": 50, "unit": "%"},
      {"measurement": "EULAR DAS28-CRP clinical response rate, moderate response", "setting": "RA patients; [3]", "result": 32, "unit": "%"},
      {"measurement": "EULAR DAS28-CRP clinical response rate, no response", "setting": "RA patients; [3]", "result": 18, "unit": "%"}
    ]},
    {"molecule": "CC1(C)CC=C(c2nc(C3CC(C)(C)OC(C)(C)C3)ccc2NC(=O)c2nc(C#N)c[nH]2)CC1", "note": "[JNJ-40346527, reference compound]", "values": [
      {"measurement": "M-DP score mean ± SD, All treated", "setting": "14-analyte M-DP panel; 40346527ARA2001, score at week 4, oral 100 mg BID", "result": "−0.08 ± 0.27 log2 (fold/baseline)"},
      {"measurement": "M-DP score mean difference ± SD, Good vs. No", "setting": "14-analyte M-DP panel; [4]", "result": "0.08 ± 0.52 log2 (fold/baseline)"},
      {"measurement": "M-DP score mean ± SD, DAS28-CRP response group Good", "setting": "14-analyte M-DP panel; [4]", "result": "0.29 ± 0.42 log2 (fold/baseline)"},
      {"measurement": "M-DP score mean ± SD, DAS28-CRP response group Moderate", "setting": "14-analyte M-DP panel; [4]", "result": "−0.05 ± 0.48 log2 (fold/baseline)"},
      {"measurement": "M-DP score mean ± SD, DAS28-CRP response group No", "setting": "14-analyte M-DP panel; [4]", "result": "−0.09 ± 0.54 [23] log2 (fold/baseline)"},
      {"measurement": "M-DP score mean ± SD, All treated", "setting": "14-analyte M-DP panel; 40346527ARA2001, score at week 12, oral 100 mg BID", "result": "−0.13 ± 0.33 log2 (fold/baseline)"},
      {"measurement": "M-DP score mean ± SD, DAS28-CRP response group Good", "setting": "14-analyte M-DP panel; [5]", "result": "−0.50 ± 0.61 log2 (fold/baseline)"},
      {"measurement": "M-DP score mean ± SD, DAS28-CRP response group Moderate", "setting": "14-analyte M-DP panel; [5]", "result": "−0.07 ± 0.55 log2 (fold/baseline)"},
      {"measurement": "M-DP score mean ± SD, DAS28-CRP response group No", "setting": "14-analyte M-DP panel; [5]", "result": "0.18 ± 0.50 [22] log2 (fold/baseline)"},
      {"measurement": "GMean M-DP scores, change", "setting": "14-analyte M-DP panel; week 4 or latest time point evaluated (weeks 28, 28, and 12, respectively)", "result": "not decreased"},
      {"measurement": "M-DP score mean ± SD, All treated", "setting": "[2]; score at week 4", "result": "−0.03 ± 0.49 log2 (fold/baseline)"},
      {"measurement": "M-DP score mean difference ± SD, Good vs. No", "setting": "[2]; score at week 4", "result": "0.34 ± 0.52 (0.1581) log2 (fold/baseline)"},
      {"measurement": "M-DP score mean ± SD, DAS28-CRP response group Good", "setting": "[2]; score at week 4", "result": "−0.29 ± 0.42 log2 (fold/baseline)"},
      {"measurement": "M-DP score mean ± SD, DAS28-CRP response group Moderate", "setting": "[2]; score at week 4", "result": "−0.05 ± 0.48 log2 (fold/baseline)"},
      {"measurement": "M-DP score mean ± SD, DAS28-CRP response group No", "setting": "[2]; score at week 4", "result": "−0.09 ± 0.54 log2 (fold/baseline)"},
      {"measurement": "M-DP score mean ± SD, All treated", "setting": "[2]; score at week 12", "result": "−0.01 ± 0.56 log2 (fold/baseline)"},
      {"measurement": "M-DP score mean difference ± SD, Good vs. No", "setting": "[2]; score at week 12", "result": "−0.68 ± 0.52 (0.0079) log2 (fold/baseline)"},
      {"measurement": "M-DP score mean ± SD, DAS28-CRP response group Good", "setting": "[2]; score at week 12", "result": "−0.50 ± 0.61 log2 (fold/baseline)"},
      {"measurement": "M-DP score mean ± SD, DAS28-CRP response group Moderate", "setting": "[2]; score at week 12", "result": "−0.07 ± 0.55 log2 (fold/baseline)"},
      {"measurement": "M-DP score mean ± SD, DAS28-CRP response group No", "setting": "[2]; score at week 12", "result": "0.18 ± 0.50 log2 (fold/baseline)"},
      {"measurement": "clinical efficacy in the underlying clinical studies", "setting": "RA patients; RA patients", "result": "not clinically efficacious"}
    ]}
  ]
}
